In PubChem BioAssay (NCI) one finds TGI data, which are given here for eleven compounds.

Each structure is given as a SMILES string.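 Protocol summary: plate cells (96-well), add compound at 5 concentrations, incubate 48 h, interpolate endpoints linearly. The concentration for full growth arrest is given as TGI.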

Among the test systems are A549 NSCLC; CAKI-1 renal; COLO 205 colon; HCT-15 colon; M14 melanoma; MALME-3M melanoma; MDA-N; NCI-H522 lung; OVCAR-3 ovarian; OVCAR-5 ovarian; RPMI-8226 leukemia; SN12C renal.
What all share (assay): NCI tumour cell line growth inhibition, 48 h

As for `[N-]=[N+]=NC1=C(N=[N+]=[N-])c2cccc3cccc(c23)C1=O`, the TGI in the assay with A549 NSCLC, in the assay with CAKI-1 renal, with COLO 205 colon, with HCT-15 colon, in the assay on M14 melanoma and in the assay with MALME-3M melanoma was > 100 µM throughout. In addition, the TGI with MDA-N, with NCI-H522 lung, in the assay on OVCAR-3 ovarian, in the assay with OVCAR-5 ovarian, in the assay with RPMI-8226 leukemia and in the assay with SN12C renal was > 100 µM each time.
As to `CC(=O)Nc1ccccc1S(=O)(=O)c1c(-c2c(C)c(Cl)c(C)c(Cl)c2C)noc1C`, the TGI in the assay with A549 NSCLC is > 100 µM; in the assay with CAKI-1 renal, 79.3 µM; in the assay on COLO 205 colon it was > 100 µM; in the assay with HCT-15 colon, > 100 µM; with M14 melanoma it was > 100 µM; with MALME-3M melanoma, > 100 µM. Besides, the TGI with MDA-N, in the assay with NCI-H522 lung, with OVCAR-3 ovarian, in the assay on OVCAR-5 ovarian, with RPMI-8226 leukemia and in the assay with SN12C renal was > 100 µM in each case.
Regarding `O=Cc1cc(O)ccc1Br`, the TGI in the assay with A549 NSCLC is > 100 µM; in the assay on CAKI-1 renal, 48.1 µM; with COLO 205 colon, > 100 µM; in the assay with HCT-15 colon it was 40.7 µM; with M14 melanoma it was > 92.2 µM; in the assay on MALME-3M melanoma, > 31.6 µM. Moreover, the TGI is 25.6 µM in the assay with MDA-N; > 94.3 µM in the assay with NCI-H522 lung; > 91.8 µM in the assay on OVCAR-3 ovarian; > 100 µM in the assay with OVCAR-5 ovarian; > 36 µM in the assay with RPMI-8226 leukemia; > 100 µM in the assay on SN12C renal.
`C[N+](C)(C)C(Cc1c[nH]c(=S)[nH]1)C(=O)O` (configuration not stated): the TGI in the assay on A549 NSCLC, in the assay with CAKI-1 renal, in the assay on COLO 205 colon, in the assay with HCT-15 colon, with M14 melanoma and with MALME-3M melanoma was > 100 µM in each case. The TGI in the assay on MDA-N, in the assay with NCI-H522 lung, with OVCAR-3 ovarian, in the assay on OVCAR-5 ovarian, in the assay with RPMI-8226 leukemia and with SN12C renal was > 100 µM each time.
As to `NC(=S)NS(=O)(=O)c1ccc(F)cc1`, the TGI with A549 NSCLC, with CAKI-1 renal, in the assay on COLO 205 colon, in the assay on HCT-15 colon, in the assay on M14 melanoma and in the assay on MALME-3M melanoma was > 100 µM throughout. Also, the TGI in the assay on MDA-N, with NCI-H522 lung, in the assay on OVCAR-3 ovarian, in the assay on OVCAR-5 ovarian, with RPMI-8226 leukemia and with SN12C renal was > 100 µM in each case.
For the compound `Nc1cccc2cc(S(=O)(=O)Nc3ccc(C(=O)O)cc3)ccc12`, the TGI with A549 NSCLC, in the assay with CAKI-1 renal, in the assay with COLO 205 colon, with HCT-15 colon, in the assay on M14 melanoma and with MALME-3M melanoma was > 100 µM each time. Also, the TGI in the assay on MDA-N, in the assay with NCI-H522 lung, in the assay with OVCAR-3 ovarian, in the assay with OVCAR-5 ovarian, with RPMI-8226 leukemia and in the assay with SN12C renal was > 100 µM throughout.
Take `CCCN=C1S/C(=C/c2ccc(OC)c(OC)c2)C(=O)N1c1ccccc1`: the TGI in the assay on A549 NSCLC, with CAKI-1 renal, in the assay on COLO 205 colon, in the assay on HCT-15 colon, with M14 melanoma and with MALME-3M melanoma was > 100 µM each time. Further, the TGI in the assay on MDA-N was > 100 µM; in the assay on NCI-H522 lung, > 100 µM; in the assay with OVCAR-3 ovarian, 43.3 µM; with OVCAR-5 ovarian, > 100 µM; in the assay on RPMI-8226 leukemia, > 100 µM; in the assay on SN12C renal, > 100 µM.
As to `Cc1cc2c(cc1-c1cc3c(cc1C)C(C(C)C)=C(O)C(=O)/C3=C\Nc1cccc3c(N)cccc13)/C(=C/Nc1cccc3c(N)cccc13)C(=O)C(O)=C2C(C)C`, the TGI in the assay on A549 NSCLC, in the assay on CAKI-1 renal, in the assay with COLO 205 colon, in the assay on HCT-15 colon, in the assay with M14 melanoma and in the assay with MALME-3M melanoma was > 100 µM throughout. For the same compound, the TGI in the assay on MDA-N, in the assay with NCI-H522 lung, with OVCAR-3 ovarian, with OVCAR-5 ovarian, with RPMI-8226 leukemia and in the assay with SN12C renal was > 100 µM in each case.
Turning to `COc1cc([C@@H]2c3cc4c(cc3[C@@H](N=Cc3ccc(C(=O)O[C@H]5C[C@H]6OC[C@@]6(OC(C)=O)[C@H]6[C@H](OC(=O)c7ccccc7)[C@]7(O)C[C@H](OC(=O)[C@H](OC(=O)c8ccc(C=N[C@@H]9c%10cc%11c(cc%10[C@@H](c%10cc(OC)c(O)c(OC)c%10)[C@H]%10C(=O)OC[C@@H]%109)OCO%11)cc8)[C@@H](NC(=O)c8ccccc8)c8ccccc8)C(C)=C([C@@H](OC(C)=O)C(=O)[C@]56C)C7(C)C)cc3)C3COC(=O)C32)OCO4)cc(C)c1O` (some centres not stated), the TGI was > 50 µM with A549 NSCLC; > 50 µM in the assay with CAKI-1 renal; > 50 µM with COLO 205 colon; > 50 µM in the assay on HCT-15 colon; > 21 µM in the assay with M14 melanoma; > 50 µM with MALME-3M melanoma. The TGI is 7.71 µM in the assay with MDA-N; > 50 µM in the assay with NCI-H522 lung; > 31.9 µM in the assay with OVCAR-3 ovarian; > 23.6 µM in the assay on OVCAR-5 ovarian; > 50 µM in the assay on RPMI-8226 leukemia; > 50 µM with SN12C renal.
As to `ClCc1nc2cc(Cl)ccc2o1`, the TGI in the assay on A549 NSCLC amounted to 42.2 µM; with CAKI-1 renal it was 3.24 µM; in the assay on COLO 205 colon, 9 µM; in the assay with HCT-15 colon, 16.7 µM; in the assay on M14 melanoma, 17.4 µM; in the assay with MALME-3M melanoma it was 27.3 µM. Also, the TGI in the assay with MDA-N turned out to be 21.4 µM; in the assay with NCI-H522 lung, 3.37 µM; with OVCAR-3 ovarian, 4.07 µM; with OVCAR-5 ovarian, 38.6 µM; in the assay on RPMI-8226 leukemia, 4.07 µM; in the assay on SN12C renal it was 20.9 µM.
For the compound `O=C1C(c2c(O)n(-c3ccccc3)c3ccccc23)=Nc2ccccc21`, the TGI was > 100 µM in the assay with A549 NSCLC; > 100 µM with CAKI-1 renal; 66.3 µM with COLO 205 colon; > 100 µM in the assay with HCT-15 colon; > 100 µM with M14 melanoma; > 100 µM in the assay with MALME-3M melanoma. Further, the TGI in the assay on MDA-N, with NCI-H522 lung, in the assay on OVCAR-3 ovarian, in the assay with OVCAR-5 ovarian, in the assay with RPMI-8226 leukemia and in the assay with SN12C renal was > 100 µM in each case.
